Read-outs that look alike come from different tables or passages of the source.
How the values were obtained:
ALDH1A1 [1] = target: T1, ALDH1A1 (Homo sapiens, UniProt P00352); assay: Inhibitor screening using purified enzymes: ALDH1A1 activity, retinoic acid production by HPLC; format: biochemical; conditions: purified enzyme
T1 sequence (P00352 1-501): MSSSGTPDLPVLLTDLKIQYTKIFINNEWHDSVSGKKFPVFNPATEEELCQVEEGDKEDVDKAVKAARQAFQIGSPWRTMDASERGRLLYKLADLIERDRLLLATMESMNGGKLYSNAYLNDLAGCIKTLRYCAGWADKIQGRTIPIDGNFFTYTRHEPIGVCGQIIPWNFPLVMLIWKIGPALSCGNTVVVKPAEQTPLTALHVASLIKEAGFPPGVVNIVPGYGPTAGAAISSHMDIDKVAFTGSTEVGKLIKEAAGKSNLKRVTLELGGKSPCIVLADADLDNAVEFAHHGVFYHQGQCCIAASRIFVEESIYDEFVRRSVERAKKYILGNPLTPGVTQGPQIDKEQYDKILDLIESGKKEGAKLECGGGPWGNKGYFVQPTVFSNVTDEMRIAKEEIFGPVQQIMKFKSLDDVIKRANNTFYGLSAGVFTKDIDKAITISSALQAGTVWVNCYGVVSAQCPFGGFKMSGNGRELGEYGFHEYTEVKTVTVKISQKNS
Description: ALDHs were cloned into bacterial expression vector for in vitro enzyme assays and into mammalian expression vectors for cell-based enzyme assays. Human ALDH1A1 cDNA and human ALDH2 cDNA were purchased from OriGene (SC321535) and Open Biosystems (MHS4771-99611182), respectively. and human ALDH1A2 cDNA was cloned from human testis RNA using RT-PCR (Population Division of the Department of Economic and Social Affairs of the United Nations Secretariat. World Population prospects: the 2008 revision. Available at http://www.un.org/esa/population/ (Retrieved Sep. 30, 2011)). For bacterial expression, an open reading frame of ALDH1A1 and ALDH2 were subcloned into the pETite vector (Lucigen) with a 5′ histidine-tag and that of ALDH1A2 into a pET28 vector (Novagen) with a 3′ histidine-tag. Correct frame and sequences were verified through DNA sequencing (UW DNA sequencing facility). ALDHs were induced with 1 mM IPTG and purified using His.Bind resin (Novagen, San Diego, Calif.) and stored in a buffer containing 20 mM Hepes (pH 8), 150 mM KCl and 1 mM EDTA as previously described (Fierce, Y., de Morais Vieira, M., Piantedosi, R., Wyss, A., Blaner, W. S., and Paik, J. (2008) In vitro and in vivo characterization of retinoid synthesis from beta-carotene. Archives of biochemistry and biophysics 472, 126-138).
ALDH1A1 and ALDH1A2 activity was determined as previously reported (Beedle M T, Stevison F, Zhong G, Topping T, Hogarth C, Isoherranen N, Griswold M D. Sources of All-Trans Retinal Oxidation Independent of the Aldehyde Dehydrogenase 1A Isozymes Exist in the Postnatal Testis. Biol Reprod. 2018 Sep. 21. doi: 10.1093/biolre/ioy200). Briefly, purified enzymes were incubated in a buffer containing 10 mM HEPES buffer (pH 8.0), 150 mM potassium chloride and 2 mM EDTA with 2 mM NAD. Retinoic acid production was determined using HPLC as previously reported (Amory J K, Muller C H, Shimshoni A J, Isoherranen N, Paik J, Moreb J S, Amory D W, Evanoff R, Goldstein A S, Griswold M D. Suppression of spermatogenesis by bisdichloroacetyldiamines is mediated by inhibition of testicular retinoic acid biosynthesis. Journal of Andrology 2011; 32(1):111-119). Inhibitors were diluted in DMSO and added to the reactions. […] For initial screening of inhibitors for ALDH1A2, 1 μg ALDH1A2, 5 μM all-trans-retinal and 5 μM inhibitors were incubated for 15 min at 37° C. […] For this purpose, 0.5 μg ALDH1A2 and […] were incubated for 5 minutes at 37° C. with varying concentrations of inhibitors. To determine specificity toward ALDH1A2, the IC50 for […]

ALDH1A1 [2] = target: T1, ALDH1A1; assay: Cell-based enzyme assay, retinoic acid production in ALDH1A1/H1299 cells
Procedure: (§1) ALDH1A1 cDNA clone was purchased transfection-ready, and ALDH1A2 full-length cDNA was subcloned into pcDNA3, a mammalian expression vector. ALDH1A1 and ALDH1A2 were transfected into H1299 cells (CRL5803, ATCC) using Lipofectamine 3000 (Invitrogen) following the manufacturer's instructions. Stably transfected cells were selected with G418 (1.2 mg/ml) and referred to as ALDH1A1/H1299 and ALDH1A2/H1299. For the cell-based enzyme assays,
(§2) H1299 cells were routinely grown in RPMI-1640 (ATCC) supplemented with 10% fetal bovine serum (Atlanta Biologicals) in a 37 C, 5% CO2, moisture-saturated atmosphere. H1299, ALDH1A1/H1299 and ALDH1A2/H1299 cells were seeded into 12-well plates (1×10^5 cells/well) and grown for 2 days to confluence. Confluent cells were treated for 20 hours in the above media excluding serum with 2 μM all-trans-retinal, and varying concentrations of inhibitors. Serum-free media was used for the treatment period to avoid retinoic acid in serum. Retinoic acid concentrations were determined from cells and media, and specificity of inhibitors was determined by comparing retinoic acid levels in the presence and absence of the inhibitors in ALDH1A1- vs. ALDH1A2-expressing cells.

ALDH1A2 [3] = target: T2, ALDH1A2 (Homo sapiens, UniProt O94788); assay: Cell-based enzyme assay, retinoic acid production in ALDH1A2/H1299 cells
T2 sequence (O94788 1-518): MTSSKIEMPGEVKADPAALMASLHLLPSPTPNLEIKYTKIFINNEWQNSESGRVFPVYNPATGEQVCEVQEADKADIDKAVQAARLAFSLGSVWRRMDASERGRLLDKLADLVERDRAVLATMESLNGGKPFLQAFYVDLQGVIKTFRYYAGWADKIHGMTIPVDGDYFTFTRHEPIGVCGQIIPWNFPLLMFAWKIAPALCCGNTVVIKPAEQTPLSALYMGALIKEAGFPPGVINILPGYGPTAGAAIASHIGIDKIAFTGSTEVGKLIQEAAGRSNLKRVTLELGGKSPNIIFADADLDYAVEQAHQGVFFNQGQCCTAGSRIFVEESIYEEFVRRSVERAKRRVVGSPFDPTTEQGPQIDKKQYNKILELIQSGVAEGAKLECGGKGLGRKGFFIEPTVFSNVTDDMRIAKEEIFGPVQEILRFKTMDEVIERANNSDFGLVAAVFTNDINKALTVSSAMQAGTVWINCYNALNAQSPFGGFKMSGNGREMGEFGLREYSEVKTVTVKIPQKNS
Procedure: as §1, §2

ALDH1A2 [4] = target: T2, ALDH1A2; assay: Inhibitor screening using purified enzymes: ALDH1A2 activity, retinoic acid production by HPLC (5 uM initial screen, then IC50); format: biochemical; set-up: histidine-tag (C); made in house; host or cells: bacterial expression (pET28 vector, IPTG induction); conditions: purified enzyme
Outline: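 Purified His-tagged human enzymes in 10 mM HEPES pH 8.0, 150 mM KCl, 2 mM EDTA with 2 mM NAD, all-trans-retinal substrate; retinoic acid quantified by HPLC. ALDH1A2 initial screen: 1 μg enzyme, 5 μM retinal, 5 μM inhibitor, 15 min, 37° C; IC50 runs: 0.5 μg enzyme, 0.5 μg retinal, 5 min, 37° C.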

ALDH2 = target: T3, ALDH2 (Homo sapiens, UniProt P05091); assay: Purified ALDH2 assay with propanal, NADH fluorescence; format: biochemical; conditions: purified enzyme
T3 construct: histidine-tag (N); made in house; host or cells: bacterial expression (pETite vector, IPTG induction)
T3 sequence (P05091 18-517): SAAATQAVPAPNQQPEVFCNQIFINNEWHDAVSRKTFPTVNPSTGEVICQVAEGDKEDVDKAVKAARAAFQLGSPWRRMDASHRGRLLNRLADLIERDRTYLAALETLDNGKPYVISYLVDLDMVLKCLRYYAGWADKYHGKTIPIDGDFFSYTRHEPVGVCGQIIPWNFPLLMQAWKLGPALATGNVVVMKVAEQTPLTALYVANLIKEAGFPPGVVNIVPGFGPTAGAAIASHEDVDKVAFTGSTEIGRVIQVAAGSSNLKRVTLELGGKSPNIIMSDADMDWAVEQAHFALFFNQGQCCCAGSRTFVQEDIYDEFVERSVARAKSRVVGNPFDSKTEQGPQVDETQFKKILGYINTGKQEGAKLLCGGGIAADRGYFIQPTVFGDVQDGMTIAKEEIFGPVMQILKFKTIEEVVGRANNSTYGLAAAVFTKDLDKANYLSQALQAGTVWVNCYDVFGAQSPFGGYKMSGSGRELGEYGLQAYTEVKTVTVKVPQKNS
Outline: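 His-tagged human ALDH2 expressed in bacteria and purified. 2 μg enzyme incubated with 20 μM propanal and varying inhibitor concentrations at room temperature. Activity read as NADH fluorescence (Ex 350/Em 460 nm), with initial velocity from two consecutive readings over 1 minute.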

mice = conditions: cited from earlier work

3-{4-[(Difluoroacetyl)amino]phenyl}-1-(4-cyanophenyl)-N-(3-fluorophenyl)-1H-pyrazole-4-carboxamide [Compound 279]
IC50 (ALDH1A1 [1]): 0.029 µM
EC50 (ALDH1A1 [2]; cell-based): 0.056 µM
EC50 (ALDH1A2 [3]; cell-based): 0.017 µM
IC50 (ALDH1A2 [4]): 0.61 µM

O=C(Nc1cccc(F)c1)c1cn(-c2ccccc2)nc1-c1ccc(CNC(=O)C(Cl)Cl)cc1 [Compound 8-64, 3-(4-{[(Dichloroacetyl)amino]methyl}phenyl)-N-(3-fluorophenyl)-1-phenyl-1H-pyrazole-4-carboxamide]
IC50 (ALDH1A1 [1]): 2 µM
IC50 (ALDH1A2 [4]): 0.015 µM

Cc1ccc(NC(=O)c2cn(-c3ccccc3)nc2-c2ccc(F)cc2)cc1 [Compound 131, 3-(4-Fluorophenyl)-N-(4-methylphenyl)-1-phenyl-1H-pyrazole-4-carboxamide]
IC50 (ALDH1A1 [1]): 0.388 µM
IC50 (ALDH2): 18.8 µM
IC50 (ALDH1A2 [4]): 3.02 µM

Cc1ccccc1-c1nn(-c2ccccc2)cc1C(=O)Nc1cccc(F)c1 [Compound 149, N-(3-Fluorophenyl)-3-(2-methylphenyl)-1-phenyl-1H-pyrazole-4-carboxamide]
IC50 (ALDH1A1 [1]): 0.601 µM
IC50 (ALDH2): 4.6 µM
IC50 (ALDH1A2 [4]): 2.15 µM

CON(C)C(=O)c1ccc(-c2nn(-c3ccc(C#N)cc3)cc2C(=O)Nc2cccc(F)c2)cc1 [Compound 296]
IC50 (ALDH1A1 [1]): 9.44 µM
EC50 (ALDH1A1 [2]; cell-based): 0.542 µM
EC50 (ALDH1A2 [3]; cell-based): 0.023 µM
IC50 (ALDH1A2 [4]): 0.15 µM

N#Cc1ccc(-n2cc(C(=O)Nc3cccc(F)c3)c(-c3ccc(NC(=O)C(Cl)Cl)cc3)n2)cc1 [Compound 310, 3-{4-[(Dichloroacetyl)amino]phenyl}-1-(4-cyanophenyl)-N-(3-fluorophenyl)-1H-pyrazole-4-carboxamide]
IC50 (ALDH1A1 [1]): 0.009 µM
EC50 (ALDH1A1 [2]; cell-based): 0.14 µM
EC50 (ALDH1A2 [3]; cell-based): 0.245 µM
IC50 (ALDH1A2 [4]): 0.065 µM

C=C(C(=O)OC)c1ccc(-c2nn(-c3ccc(C#N)cc3)cc2C(=O)Nc2cccc(F)c2)cc1 [Compound 312, Methyl 2-(4-{4-[(3-fluorophenyl)carbamoyl]-1-4-cyanophenyl-1H-pyrazol-3-yl}phenyl)prop-2-enoate]
IC50 (ALDH1A1 [1]): 3.61 µM
EC50 (ALDH1A1 [2]; cell-based): 0.251 µM
EC50 (ALDH1A2 [3]; cell-based): 12.5 µM
IC50 (ALDH1A2 [4]): 1.2 µM

CC(=O)c1ccc(-c2nn(-c3ccc(C#N)cc3)cc2C(=O)Nc2cccc(F)c2)cc1 [Compound 316, 3-(4-Acetylphenyl)-N-(3-fluorophenyl)-1-(4-cyanophenyl)-1H-pyrazole-4-carboxamide]
IC50 (ALDH1A1 [1]): 10.2 µM
EC50 (ALDH1A1 [2]; cell-based): 0.28 µM
EC50 (ALDH1A2 [3]; cell-based): 0.123 µM
IC50 (ALDH1A2 [4]): 0.6 µM

Cn1cccc1C(=O)N1CCN(c2ccc(N)c(N3CCCCCC3)c2)CC1 [Compound 379, {4-[4-Amino-3-(azepan-1-yl)phenyl]piperazin-1-yl}(1-methyl-1H-pyrrol-2-yl)methanone]
IC50 (ALDH1A1 [1]): 0.714 µM
EC50 (ALDH1A1 [2]): 0.736 µM
EC50 (ALDH1A2 [3]): 2.58 µM
IC50 (ALDH1A2 [4]): 2.58 µM

Cn1cccc1C(=O)N1CCN(c2ccc(NC(=O)C(Cl)Cl)c(N3CCCCC3)c2)CC1 [Compound 380, {4-[4-Dichloroacetamido-3-(piperidin-1-yl)phenyl]piperazin-1-yl}(1-methyl-1H-pyrrol-2-yl)methanone]
IC50 (ALDH1A1 [1]): 0.023 µM
EC50 (ALDH1A1 [2]): 0.099 µM
EC50 (ALDH1A2 [3]): > 5 µM
IC50 (ALDH1A2 [4]): 8.7 µM

BMS-189453
fertility (mice; mice, oral): infertile after four weeks of treatment
liver toxicity (mice; mouse, in vivo): hepatic inflammation
effect on spermatogenesis (mice; oral doses as low as 5 mg/kg for seven days): potently inhibits spermatogenesis

Reference: US11548875B2, “Inhibitor compounds for male contraception” (University of Washington, priority 2018, dated 2023)
